# Columns and labels:
# [1] = tested on: Primary human epidermal keratinocytes (HEKa); assay: Real-time PCR array, Heat Shock Protein Array, calcitriol-treated HEKa; type: cell-based; settings: HEKa cells, 0.1 μg/mL calcitriol
# Description: (§1) Changes in mRNA levels were evaluated using real-time PCR quantification to assess mRNA levels in preselected subsets containing 80 pathway specific targets (see Appendix). The PCR array analysis utilized two groups of genes—those related to Heat Shock Proteins (SABiosciences), and those related to Neuroscience Ion Channels and Transporters (SABioscience). Primary human epidermal keratinocytes (HEKa) were maintained in Epilife Medium (Cascade Biologics, Inc., Portland Oreg.) along with Human Keratinocyte Growth Supplement (Cascade Biologics, Inc., Portland Oreg.). […] Vehicle control group of cells were treated with 5 mL media containing 1 μL of ethanol. Cells were harvested 3, 6, 16, 24, 48, or 72 hours after the start of the treatment. Cells were lysed for RNA isolation at different treatment times using the RNeasy Mini kit (Qiagen, Inc., Valencia Calif.) following the manufacturer's instructions. RNA was quantified by measuring optical density at 260 nm. First Strand Synthesis: […] Products from the first strand synthesis were diluted with water, mixed with the SYBR green master mix (SABiosciences, Frederick Md.) and loaded onto PCR arrays. Real time PCR was run on the PCR Arrays (Heat Shock Protein Arrays, and Neuroscience and Ion Channel Arrays) (SABiosciences, Frederick Md.) on a Biorad CFX96. Data analyses were performed using the PCR array data analysis software available on the SABiosciences website.
# [2] = tested on: Primary human epidermal keratinocytes (HEKa); assay: Real-time PCR array, Neuroscience and Ion Channels Array, calcitriol-treated HEKa; type: cell-based; settings: HEKa cells, 0.1 μg/mL calcitriol, three independent experiments
# Description: as §1
# HEKa cells [3] = assay: Antibody microarray (Panorama XP725) of calcitriol-treated HEKa; type: cell-based, human; settings: calcitriol-treated (24 hour), 3-hour sample as baseline
# Description: Briefly, the treated HEKa cells were first harvested and then extracted to obtain a soluble protein supernatant. […] The excess dye was removed from the protein sample, and the resulting labeled protein samples were used for microarray incubation. To determine the expression level of a particular target protein at a later time point (e.g., at hour 6 or 24) relative to that at an earlier time point (e.g., at hour 3), the samples were labeled by different labels (e.g., 3-hour extract labeled with Cy3,6-hour or 24-hour extract labeled with Cy5). […] After incubation with the microarray chip (according to manufactures recommended protocols), the chips were washed and dried. The microarrays were then scanned with a fluorescent laser scanner to measure the relative fluorescence intensity of the Cy3 and Cy5 dyes. If the amount of a particular type of target protein increased (or decreased) over time, more (or less) of the dye associated with the later time point (e.g., Cy5) will be retained by the microarray. For example, in this experiment, the earliest time point (e.g., 3-hour) was used as a baseline to determine the relative protein expression level at two later time points (e.g., 6-hour vs. 24-hour). If more Cy5 is retained by the array between 6-24 hours, the expression level of the target protein increased over the time period. […]
# HEKa cells [4] = assay: Protective effect of calcitriol on HEKa cells against chemotherapeutic drugs; type: cell-based, human; settings: 0.1 μg/mL calcitriol
# Description: These include: erlotinib (Tarceva), an EGFR Tyr kinase inhibitor; gefutubib (Iressa), an EGFR Tyr kinase inhibitor; sorafenib, inhibitor of several Tyr kinases (Raf, VEGF-R2, c-kit, PDGR-R); Dasatinib, a BCR/ABL Tyr kinase inhibitor; and staurosporin, a relatively nonspecific kinase inhibitor.
# The drug treatment period was usually three days. At the end of the three days, the background OD of the 96-well plate was read at 280 nm, before 20 μL of the “Substrate Cell Titer 96 Aqueous One Solution Reagent” (Promega) was added to each well. The plate was returned to the 37° C. incubator, and its OD at 490 nm was read each hour until an OD of approximately 1.5 was reached. The net OD increase was calculated by subtracting the pre-substrate OD reading.
# The impact of the drug on the cells was calculated by comparing the OD at different concentrations in relation to the OD of the control wells (without the drug).
# [5] = tested on: SkBr-3 (breast adenocarcinoma cancer, Her2 overexpressed); assay: Cell growth/viability assay, calcitriol with or without chemotherapy drug; type: cell-based
# [6] = tested on: PaCa2 (pancreatic carcinoma); assay: as above; type: cell-based
# NCI-ES-0808 = assay: as above; type: cell-based
# [7] = tested on: MCF-7 (breast cancer with p53 mutation); assay: as above; type: cell-based
# HepG2 (liver cancer) = assay: as above; type: cell-based
# [8] = tested on: MIAC51 (chloroleukemia cells); assay: Rats transplanted with chloroleukemia: protection of cancer cells from chemotherapy; type: in vivo; settings: Long Evans rats injected with MIAC51, cyclophosphamide; preliminary results
# Description: For experiments in which rats were transplanted with chloroleukemia, on Day 5 after birth, rats were randomly divided into three groups of 45 each. All rats received 1×10^5 chloroleukemic cell line MIAC51 (i.p.) in 0.1 mL of serum free (SF) RPMI. MIAC51 were cultured in RPMI 1640 supplemented with L-glutamine and 10% fetal bovine serum at 37° C. in a 5% CO2, 100% humidity incubator. Cells were grown to 50% confluency (1.5×106 mL) collected in 50 mL conical tubes, centrifuged at 600 g×10 min. at room temperature and resuspended in SF-RPMI at a concentration of 1×10^6/mL. Group 1 rats received no further treatment. Group 2 rats received topical vehicle and CTX on day 13. […] Topical applications were performed as described above.
# On day 23 after birth, a sample of blood was taken from all rats and differentials performed. Rats with leukemia were sacrificed, rats without leukemia were kept and a second differential performed on day 31, at any point if leukemia was detected, animals were sacrificed by CO2 asphyxiation.
# [9] = Preliminary animal toxicology study; type: in vivo; settings: dose of about 100 μg
compound,measurement,setting,value
"C=C1/C(=C\C=C2/CCC[C@]3(C)[C@@H]([C@H](C)CCCC(C)(C)O)CC[C@@H]23)C[C@@H](O)C[C@@H]1O [Calcitriol, 1,25-dihydroxyvitamin D3]",HSPB1 (Heat shock 27 kDa protein 1) mRNA Regulation Pattern,[1]; regulated in two independent experiments,Down regulated at 48 hours
same,"DNAJC6 (DnaJ (Hsp40) homolog, subfamily C, member 6) mRNA Regulation Pattern",[1]; two independent experiments,Downregulated
same,HSF4 (Heat shock transcription factor 4) mRNA Regulation Pattern,[1]; two independent experiments,Upregulated at 48 hours
same,HSPA2 (Heat shock 70 kDa protein 2) mRNA Regulation Pattern,[1]; two independent experiments,Upregulated at 48 hours
same,SLC1A1 mRNA Regulation Pattern,[2]; at 16 hrs,upregulated
same,KCNN4 mRNA Regulation Pattern,[2]; at 48 hours,upregulated at 48
same,KCNB2 mRNA Regulation Pattern,[2]; until 24 hours,upregulated until
same,Target Proteins with Decreased (>2-fold) Protein Levels Following Calcitriol Treatment (value = protein),HEKa cells [3],Transforming Growth Factorb pan and WAVE and Protein Tyrosine Phosphatase PEST and CD40 and Crk II and Growth Factor Independence1 and Serine Threonine Protein and Cathepsin D
same,protective effect against 5-FU,HEKa cells [4],mild protective effect
same,protective effect against Paxlitaxol (paclitaxel),HEKa cells [4],some protective effects
same,protective effect against gemcitabine,HEKa cells [4],mild protective effect
same,protective effect against irinotecan,HEKa cells [4],positive protective effect
same,protective effect against tamoxifen,HEKa cells [4],weak
same,protective effect against the cytotoxic effect of doxorubicin,HEKa cells [4],did not appear to provide a significant protective effect
same,protection against alkylating agents cisplatin and carboplatin,HEKa cells [4]; low dosage levels,moderate level of protection
same,"protective effect against kinase inhibitor drugs (erlotinib, gefitinib, sorafenib, dasatinib, staurosporin)",HEKa cells [4]; low drug dosage levels,protected the HEKa cells
same,effect of calcitriol on cell growth,[5],no significant growth promoting or growth inhibiting effects
same,effect on the cytotoxic effect of Doxorubicin,[5],did not appear to appreciably alter
same,effect of calcitriol on cell growth,[6]; PaCa2,no significant growth promoting or growth inhibiting effects
same,effect on the cytotoxic effect of Doxorubicin,[6]; PaCa-2,did not appear to appreciably alter
same,5-FU ED50 curve with versus without calcitriol,"[6]; PaCa-2, 0.1 μg/mL calcitriol",not significantly different
same,"response to other drugs (doxorubucin, cisplatin, erlotinib) after calcitriol exposure","[6]; PaCa-2, 0.1 μg/mL calcitriol for two passages",did not alter
same,effect of calcitriol on cell growth,NCI-ES-0808,no significant growth promoting or growth inhibiting effects
same,effect on the cytotoxic effect of Doxorubicin,NCI-ES-0808,did not appear to appreciably alter
same,concentrations giving calcitriol growth inhibition,[7]; MCF-7,> 0.5 µg/mL
same,concentrations giving calcitriol growth stimulation,[7]; MCF-7,0.05 to 0.25 µg/mL
same,effect on the cytotoxic effect of Doxorubicin,[7]; MCF-7,did not appear to appreciably alter
same,"response to other drugs (doxorubucin, cisplatin, erlotinib) after calcitriol exposure","[7]; MCF-7, 0.1 μg/mL calcitriol for two passages",did not alter
same,effect on the cytotoxic effect of Doxorubicin,HepG2 (liver cancer); Hep-G2,did not appear to appreciably alter
same,5-FU ED50 curve with versus without calcitriol,"HepG2 (liver cancer); Hep-G2, 0.1 μg/mL calcitriol",not significantly different
same,"response to other drugs (doxorubucin, cisplatin, erlotinib) after calcitriol exposure","HepG2 (liver cancer); Hep-G2, 0.1 μg/mL calcitriol for two passages",did not alter
same,concentrations giving calcitriol growth inhibition,HepG2 (liver cancer); HepG2,> 0.5 µg/mL
same,concentrations giving calcitriol growth stimulation,HepG2 (liver cancer); HepG2,0.05 to 0.25 µg/mL
same,protection of the cancer cells from chemotherapy by topical calcitriol,[8],have not shown protection of the cancer cells
same,dermal irritation,[9],no dermal irritation
same,skin penetration,[9],excellent epidermal penetration without substantial dermal penetration
